According to patent publication US12780800B1, “Triazole-pyridinyl substituted azacyclohexyl acetic acid compounds as LPA receptor antagonists” (Viva Star Biosciences Limited, priority 2021, dated 2022):

Biological target: T1, LPA1 (Homo sapiens, UniProt Q92633)
T1 construct: ProLink (PK) beta-galactosidase enzyme-fragment tag; host or cells: CHO-K1
Assay: LPA1 calcium flux assay (LPA1 functional antagonist assay)
Assay type: cell-based
Conditions: PathHunter CHO-K1 EDG2 β-Arrestin cell line; calcium indicator dye; stimulated with EC80 concentration of LPA; FLIPR Tetra
Outline: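 The LPA1 antagonist readout was intracellular calcium flux, and IC50 values were calculated from it. Plates stood 30 min at RT after compound addition. Cells, grown overnight, had first taken up calcium dye over 45 min at 37 °C.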

T1 sequence (Q92633 whole entry, the tested form may be a part): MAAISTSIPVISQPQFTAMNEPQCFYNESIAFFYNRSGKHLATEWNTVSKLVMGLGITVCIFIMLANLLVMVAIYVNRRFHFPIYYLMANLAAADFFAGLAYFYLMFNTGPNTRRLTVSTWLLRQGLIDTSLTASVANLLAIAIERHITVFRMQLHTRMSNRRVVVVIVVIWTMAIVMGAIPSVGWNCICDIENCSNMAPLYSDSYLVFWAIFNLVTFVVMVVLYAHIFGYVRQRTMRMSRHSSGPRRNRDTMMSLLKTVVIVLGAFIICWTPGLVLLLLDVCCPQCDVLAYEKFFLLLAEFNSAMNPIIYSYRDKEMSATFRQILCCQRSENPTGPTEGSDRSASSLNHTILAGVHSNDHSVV

IC50 | Compound
100 to 500 nM | CCc1nc(-c2nnn(C)c2COC(=O)N(C)CC2CC2)ccc1N1C[C@@H](CC(=O)O)CC(F)(F)C1 [Example 141, (S)-2-(1-(6-(5-((((cyclopropylmethyl)(methyl)carbamoyl)oxy)methyl)-1-methyl-1H-1,2,3-triazol-4-yl)-2-ethylpyridin-3-yl)-5,5-difluoropiperidin-3-yl)acetic acid]
100 to 500 nM | Cc1nc(-c2nnn(C)c2COC(=O)N(C)C2CCC2)ccc1N1C[C@@H](CC(=O)O)CC(F)(F)C1 [Example 142, (S)-2-(1-(6-(5-(((cyclobutyl(methyl)carbamoyl)oxy)methyl)-1-methyl-1H-1,2,3-triazol-4-yl)-2-methylpyridin-3-yl)-5,5-difluoropiperidin-3-yl)acetic acid]
< 100 nM | CCc1nc(-c2nnn(C)c2COC(=O)N(C)C2CCC2)ccc1N1C[C@@H](CC(=O)O)CC(F)(F)C1 [Example 143, (S)-2-(1-(6-(5-(((cyclobutyl(methyl)carbamoyl)oxy)methyl)-1-methyl-1H-1,2,3-triazol-4-yl)-2-ethylpyridin-3-yl)-5,5-difluoropiperidin-3-yl)acetic acid]
500 to 5000 nM | CCCN(C)C(=O)OCc1c(-c2ccc(N3CCC[C@H](CC(=O)O)C3)c(C)n2)nnn1C [Example 144, (R)-2-(1-(2-methyl-6-(1-methyl-5-(((methyl(propyl)carbamoyl)oxy)methyl)-1H-1,2,3-triazol-4-yl)pyridin-3-yl)piperidin-3-yl)acetic acid]
500 to 5000 nM | CCCN(C)C(=O)OCc1c(-c2ccc(N3CCC[C@H](CC(=O)O)C3)c(CC)n2)nnn1C [Example 145, (R)-2-(1-(2-ethyl-6-(1-methyl-5-(((methyl(propyl)carbamoyl)oxy)methyl)-1H-1,2,3-triazol-4-yl)pyridin-3-yl)piperidin-3-yl)acetic acid]
> 5000 nM | CCCN(C)C(=O)OCc1c(-c2ccc(N3C[C@@H](CC(=O)O)CC(F)(F)C3)c(CC)n2)nnn1C [Example 146, (S)-2-(1-(2-ethyl-6-(1-methyl-5-(((methyl(propyl)carbamoyl)oxy)methyl)-1H-1,2,3-triazol-4-yl)pyridin-3-yl)-5,5-difluoropiperidin-3-yl)acetic acid]
500 to 5000 nM | CCc1nc(-c2nnn(C)c2CNc2nccc(C3CC3)n2)ccc1CN1CC(C(=O)O)CC(F)(F)C1 (centres unmarked) [Example 151, 1-((6-(5-(((4-cyclopropylpyrimidin-2-yl)amino)methyl)-1-methyl-1H-1,2,3-triazol-4-yl)-2-ethylpyridin-3-yl)methyl)-5,5-difluoropiperidine-3-carboxylic acid]
> 5000 nM | CCCN(C)C(=O)OCc1c(-c2ccc(CN3CCOC(C(=O)O)C3)c(C)n2)nnn1C (centres unmarked) [Example 166, 4-((2-methyl-6-(1-methyl-5-(((methyl (propyl)carbamoyl)oxy)methyl)-1H-1,2,3-triazol-4-yl)pyridin-3-yl)methyl)morpholine-2-carboxylic acid]
< 100 nM | Cn1nnc(-c2ccc(N3CCC[C@H](CC(=O)O)C3)c(C(F)F)n2)c1Cn1ncc(CC2CC2)n1 [Example 167, (R)-2-(1-(6-(5-((4-(cyclopropylmethyl)-2H-1,2,3-triazol-2-yl)methyl)-1-methyl-1H-1,2,3-triazol-4-yl)-2-(difluoromethyl)pyridin-3-yl)piperidin-3-yl)acetic acid]
< 100 nM | Cn1nnc(-c2ccc(N3CCC[C@H](CC(=O)O)C3)c(C(F)F)n2)c1Cn1nncc1CC1CC1 [Example 168, (R)-2-(1-(6-(5-((5-(cyclopropylmethyl)-1H-1,2,3-triazol-1-yl)methyl)-1-methyl-1H-1,2,3-triazol-4-yl)-2-(difluoromethyl)pyridin-3-yl)piperidin-3-yl)acetic acid]
100 to 500 nM | Cn1nnc(-c2ccc(N3CCC[C@H](CC(=O)O)C3)c(C(F)F)n2)c1Cn1cc(CC2CC2)nn1 [Example 169, (R)-2-(1-(6-(5-((4-(cyclopropylmethyl)-1H-1,2,3-triazol-1-yl)methyl)-1-methyl-1H-1,2,3-triazol-4-yl)-2-(difluoromethyl)pyridin-3-yl)piperidin-3-yl)acetic acid]
500 to 5000 nM | CCCN(C)C(=O)OCc1c(-c2ccc(N3CCOC(CC(=O)O)C3)c(CC)n2)nnn1C (centres unmarked) [Example 170, 2-(4-(2-ethyl-6-(1-methyl-5-(((methyl(propyl)carbamoyl)oxy)methyl)-1H-1,2,3-triazol-4-yl)pyridin-3-yl)morpholin-2-yl)acetic acid]
< 100 nM | CCc1nc(-c2nnn(C)c2COc2nccc(C3CCC3)n2)ccc1N1CCOC(CC(=O)O)C1 (centres unmarked) [Example 171, 2-(4-(6-(5-(((4-cyclobutylpyrimidin-2-yl)oxy)methyl)-1-methyl-1H-1,2,3-triazol-4-yl)-2-ethylpyridin-3-yl)morpholin-2-yl)acetic acid]
500 to 5000 nM | CCCc1ccc(=O)n(Cc2c(-c3ccc(N4CCO[C@H](CC(=O)O)C4)c(CC)n3)nnn2C)c1 [Example 172, 2-[(2R)-4-(2-ethyl-6-{1-methyl-5-[(2-oxo-5-propyl-1,2-dihydropyridin-1-yl)methyl]-1H-1,2,3-triazol-4-yl}pyridin-3-yl)morpholin-2-yl]acetic acid]
